This note sets out measurements from ChEMBL document CHEMBL5696442, “Discovery of type II inhibitors of TGFβ-activated kinase 1 (TAK1) and mitogen-activated protein kinase kinase kinase kinase 2 (MAP4K2)” (J Med Chem, 2015).

As a reminder, the inhibition is the drop in the measured response relative to a control, in per cent.

Assay [1] has as its target Serine/threonine-protein kinase Chk2 (Homo sapiens) (UniProt O96017). Kind of assay: Inhibition of CHK2 Lys1 labeling site in human A-375 cells at 0.5 uM by KiNativ Profiling analysis relative to control. Type of assay: cell-based.
The subject of assay [2] is Tyrosine-protein kinase ABL1 (Homo sapiens), P00519 [E255K]. Kind of assay: Inhibition of phosphorylated ABL1 E255K mutant (unknown origin) at 1 uM by Ambit Kinomescan binding assay relative to control; values are per cent of control.
Assay [3] concerns the target Serine/threonine-protein kinase B-raf (Homo sapiens, UniProt P15056). Kind of assay: Inhibition of BRAF Lys2 labeling site in human A-375 cells at 0.5 uM by KiNativ Profiling analysis relative to control. It counts as cell-based.
In assay [4] the target is T1, Receptor-interacting serine/threonine-protein kinase 4 (Homo sapiens) (UniProt P57078).
T1 sequence (whole entry): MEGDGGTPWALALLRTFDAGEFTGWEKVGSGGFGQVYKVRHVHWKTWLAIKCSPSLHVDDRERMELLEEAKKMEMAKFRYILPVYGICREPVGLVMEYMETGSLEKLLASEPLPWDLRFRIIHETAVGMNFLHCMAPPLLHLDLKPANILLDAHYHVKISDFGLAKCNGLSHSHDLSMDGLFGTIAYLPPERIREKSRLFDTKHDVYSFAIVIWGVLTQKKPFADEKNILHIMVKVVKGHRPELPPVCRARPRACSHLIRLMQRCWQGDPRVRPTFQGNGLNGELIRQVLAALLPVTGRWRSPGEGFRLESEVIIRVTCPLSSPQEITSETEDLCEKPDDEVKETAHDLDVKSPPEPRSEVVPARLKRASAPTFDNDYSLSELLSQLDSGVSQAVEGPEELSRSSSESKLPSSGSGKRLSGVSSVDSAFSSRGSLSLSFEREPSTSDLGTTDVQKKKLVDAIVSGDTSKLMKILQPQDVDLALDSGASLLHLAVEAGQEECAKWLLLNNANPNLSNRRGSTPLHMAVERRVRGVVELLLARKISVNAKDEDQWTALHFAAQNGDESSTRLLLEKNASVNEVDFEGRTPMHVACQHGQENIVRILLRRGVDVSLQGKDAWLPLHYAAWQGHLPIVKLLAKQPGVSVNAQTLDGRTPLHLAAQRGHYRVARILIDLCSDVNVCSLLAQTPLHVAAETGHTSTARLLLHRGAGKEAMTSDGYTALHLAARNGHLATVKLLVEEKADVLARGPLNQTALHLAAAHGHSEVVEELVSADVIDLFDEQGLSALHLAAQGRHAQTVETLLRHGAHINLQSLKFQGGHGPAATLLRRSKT
The assay is described as follows: Inhibition of ANKRD3 Lys1 labeling site in human A-375 cells at 0.05 uM by KiNativ Profiling analysis relative to control. It counts as cell-based.

Assay [5] concerns Receptor-type tyrosine-protein kinase FLT3 (Homo sapiens), P36888 [N841I]. Kind of assay: Inhibition of FLT3 N841I mutant (unknown origin) at 10 uM by Ambit Kinomescan binding assay relative to control.
Assay [6] addresses T2, Serine/threonine-protein kinase ULK3 (Homo sapiens) (UniProt Q6PHR2).
T2 sequence (whole entry): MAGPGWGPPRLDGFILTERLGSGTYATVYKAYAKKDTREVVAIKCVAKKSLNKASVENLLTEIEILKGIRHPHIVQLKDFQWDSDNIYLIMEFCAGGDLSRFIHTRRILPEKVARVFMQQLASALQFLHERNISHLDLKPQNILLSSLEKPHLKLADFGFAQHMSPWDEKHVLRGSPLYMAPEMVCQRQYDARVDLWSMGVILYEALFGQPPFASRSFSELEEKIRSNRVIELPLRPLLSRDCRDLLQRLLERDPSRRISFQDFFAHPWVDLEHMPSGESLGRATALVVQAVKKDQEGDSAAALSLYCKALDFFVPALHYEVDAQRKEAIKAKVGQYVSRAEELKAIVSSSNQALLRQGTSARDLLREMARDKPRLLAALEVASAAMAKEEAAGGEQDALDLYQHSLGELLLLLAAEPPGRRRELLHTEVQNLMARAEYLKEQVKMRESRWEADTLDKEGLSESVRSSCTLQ
Kind of assay: Inhibition of ULK3 Lys2 labeling site in human Huh-7 cell lysate at 1 uM by KiNativ Profiling analysis relative to control. Type of assay: subcellular.

Assay [7] addresses T3, Serine/threonine-protein kinase Chk1 (Homo sapiens) (UniProt O14757).
T3 sequence (whole entry): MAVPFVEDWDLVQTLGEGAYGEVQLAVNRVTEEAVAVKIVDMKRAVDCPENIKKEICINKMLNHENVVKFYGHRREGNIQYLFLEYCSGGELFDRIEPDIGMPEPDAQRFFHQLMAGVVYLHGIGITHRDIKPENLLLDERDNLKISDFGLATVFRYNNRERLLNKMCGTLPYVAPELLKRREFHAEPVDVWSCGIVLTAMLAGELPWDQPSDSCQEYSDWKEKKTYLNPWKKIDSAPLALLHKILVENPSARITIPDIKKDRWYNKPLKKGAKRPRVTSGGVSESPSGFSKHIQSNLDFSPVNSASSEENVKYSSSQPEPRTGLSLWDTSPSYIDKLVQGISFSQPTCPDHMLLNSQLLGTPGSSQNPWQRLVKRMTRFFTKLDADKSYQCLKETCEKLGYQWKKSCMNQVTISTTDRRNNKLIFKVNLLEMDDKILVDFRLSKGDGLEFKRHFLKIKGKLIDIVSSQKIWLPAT
The assay is described as follows: Inhibition of CHK1 Lys2 labeling site in human Huh-7 cell lysate at 1 uM by KiNativ Profiling analysis relative to control. It counts as subcellular.

Chain of Serine/threonine-protein kinase Chk2 (Homo sapiens) (O96017 whole entry): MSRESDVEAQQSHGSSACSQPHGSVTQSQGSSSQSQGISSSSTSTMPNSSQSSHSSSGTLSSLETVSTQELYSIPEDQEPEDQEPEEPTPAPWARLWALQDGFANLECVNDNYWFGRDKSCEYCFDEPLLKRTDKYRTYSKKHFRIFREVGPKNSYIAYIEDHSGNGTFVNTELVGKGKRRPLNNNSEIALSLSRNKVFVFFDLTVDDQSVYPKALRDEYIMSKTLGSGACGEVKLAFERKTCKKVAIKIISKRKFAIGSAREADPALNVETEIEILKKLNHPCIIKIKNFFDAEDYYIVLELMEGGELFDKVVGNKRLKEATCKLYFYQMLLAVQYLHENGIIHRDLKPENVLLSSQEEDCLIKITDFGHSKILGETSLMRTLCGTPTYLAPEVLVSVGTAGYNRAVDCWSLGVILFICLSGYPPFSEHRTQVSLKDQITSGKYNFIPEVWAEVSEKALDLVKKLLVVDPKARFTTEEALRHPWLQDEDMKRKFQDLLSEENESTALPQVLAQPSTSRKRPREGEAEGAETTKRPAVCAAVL
Chain of Serine/threonine-protein kinase B-raf (P15056 whole entry): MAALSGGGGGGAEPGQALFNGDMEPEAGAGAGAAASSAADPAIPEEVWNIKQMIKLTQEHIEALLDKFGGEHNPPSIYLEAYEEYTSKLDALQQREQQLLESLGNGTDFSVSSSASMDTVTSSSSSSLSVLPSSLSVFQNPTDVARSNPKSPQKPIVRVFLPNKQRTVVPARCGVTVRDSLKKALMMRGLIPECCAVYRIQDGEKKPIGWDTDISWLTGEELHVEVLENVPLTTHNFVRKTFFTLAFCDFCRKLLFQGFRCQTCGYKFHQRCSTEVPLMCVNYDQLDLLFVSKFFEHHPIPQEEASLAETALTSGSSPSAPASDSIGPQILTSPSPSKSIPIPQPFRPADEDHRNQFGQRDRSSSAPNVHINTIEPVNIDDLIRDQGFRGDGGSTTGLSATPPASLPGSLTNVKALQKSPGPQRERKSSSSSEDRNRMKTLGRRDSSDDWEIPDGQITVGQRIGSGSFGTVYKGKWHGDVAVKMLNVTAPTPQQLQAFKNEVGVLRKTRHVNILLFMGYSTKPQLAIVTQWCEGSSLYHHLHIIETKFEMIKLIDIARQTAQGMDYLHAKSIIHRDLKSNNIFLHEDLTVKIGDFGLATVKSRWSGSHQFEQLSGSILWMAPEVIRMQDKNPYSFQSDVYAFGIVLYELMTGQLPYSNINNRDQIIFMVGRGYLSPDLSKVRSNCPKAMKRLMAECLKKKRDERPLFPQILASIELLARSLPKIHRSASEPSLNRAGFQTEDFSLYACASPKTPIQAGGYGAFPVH
Chain of Tyrosine-protein kinase ABL1 (Homo sapiens), P00519 [E255K] (P00519 whole entry E255K): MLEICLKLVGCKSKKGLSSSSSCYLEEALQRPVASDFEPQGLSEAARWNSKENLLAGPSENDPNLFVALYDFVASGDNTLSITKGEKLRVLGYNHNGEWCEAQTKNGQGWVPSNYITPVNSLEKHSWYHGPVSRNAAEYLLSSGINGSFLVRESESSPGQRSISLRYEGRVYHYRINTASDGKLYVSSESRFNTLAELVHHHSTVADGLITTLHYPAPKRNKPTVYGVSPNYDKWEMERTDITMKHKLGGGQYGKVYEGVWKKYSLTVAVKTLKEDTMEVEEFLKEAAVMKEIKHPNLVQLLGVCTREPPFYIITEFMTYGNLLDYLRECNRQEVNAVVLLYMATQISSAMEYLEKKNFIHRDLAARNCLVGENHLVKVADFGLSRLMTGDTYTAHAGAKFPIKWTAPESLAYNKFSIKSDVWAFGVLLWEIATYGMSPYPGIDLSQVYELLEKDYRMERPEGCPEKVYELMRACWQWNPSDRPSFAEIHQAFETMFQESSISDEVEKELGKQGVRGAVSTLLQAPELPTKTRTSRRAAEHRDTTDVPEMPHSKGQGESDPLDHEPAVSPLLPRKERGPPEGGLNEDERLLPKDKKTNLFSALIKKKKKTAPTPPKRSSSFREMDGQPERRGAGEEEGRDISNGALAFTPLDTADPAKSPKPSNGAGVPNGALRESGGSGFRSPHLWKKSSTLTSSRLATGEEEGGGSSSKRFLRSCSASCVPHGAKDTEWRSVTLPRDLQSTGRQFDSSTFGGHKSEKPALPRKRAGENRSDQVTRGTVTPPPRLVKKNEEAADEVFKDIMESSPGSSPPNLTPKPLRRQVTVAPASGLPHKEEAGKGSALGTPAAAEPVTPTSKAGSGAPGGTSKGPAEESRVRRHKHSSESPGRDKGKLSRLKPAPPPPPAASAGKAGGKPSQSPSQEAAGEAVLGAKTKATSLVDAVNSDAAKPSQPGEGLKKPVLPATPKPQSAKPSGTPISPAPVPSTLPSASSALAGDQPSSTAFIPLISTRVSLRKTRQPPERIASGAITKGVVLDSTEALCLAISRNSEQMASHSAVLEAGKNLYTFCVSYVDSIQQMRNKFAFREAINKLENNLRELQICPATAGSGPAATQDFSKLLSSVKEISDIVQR

As for `CCN1CCN(Cc2ccc(NC(=O)c3ccc(C)c(/C=C/c4cnc5[nH]ccc5c4OC)c3)cc2C(F)(F)F)CC1`, the inhibition is -4.8% in assay [1] and 58.7% in assay [3]. This molecule also yielded a percent of control in assay [2] of 0.85%.
On to `CCN1CCN(Cc2ccc(NC(=O)c3ccc(C)c(Oc4ccnc5[nH]ccc45)c3)cc2C(F)(F)F)CC1`, for which the inhibition in assay [4] is 32.4%; in assay [5] it was 0%.
With `CNc1cc(Oc2cc(C(=O)Nc3cc(N4CCN(C)CC4)cc(C(F)(F)F)c3)ccc2C)ncn1`, the values for the inhibition in assay [6] and in assay [7] were 2.3% and -1.1%, respectively.
